Data taken from patent US10611740B2, “Aryl dihydro-2H-benzo[b][1,4]oxazine sulfonamide and related compounds for use as agonists of RORγ and the treatment of disease” (Lycera Corporation, priority 2015, dated 2020).

Legend:
Gal4-RORγ-LBD = target: T1, Gal4-RORγ-LBD (Homo sapiens, UniProt P51449); assay: Gal4-RORγ Luciferase Reporter Assay in HEK-293T Cells; assay type: cell-based; conditions: HEK-293 cells, luciferase reporter, with 2 μM ursolic acid
T1 construct: expressed in transfected cells; host or cells: HEK-293 cells (pcDNA3.1neo plasmid)
T1 sequence (P51449 269-508 limits assumed): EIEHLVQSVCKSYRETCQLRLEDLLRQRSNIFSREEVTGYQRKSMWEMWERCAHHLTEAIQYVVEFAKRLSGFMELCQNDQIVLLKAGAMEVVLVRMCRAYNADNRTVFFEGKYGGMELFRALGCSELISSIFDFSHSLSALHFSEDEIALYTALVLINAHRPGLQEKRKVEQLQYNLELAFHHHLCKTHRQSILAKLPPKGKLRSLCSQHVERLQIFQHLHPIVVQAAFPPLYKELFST
How it was run: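 In transfected HEK-293 cells (Gal4-RORγ-LBD, Gal4-luciferase), test agents with 2 μM ursolic acid were incubated overnight at 37 °C before luminescent detection. Values are relative to the ursolic-acid-free, compound-free signal (100).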

RORγ-LBD = target: T2, RORγ-LBD (Homo sapiens, UniProt P51449); assay: RORγ-Ligand Binding Domain (LBD) TR-FRET Assay; assay type: biochemical;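 for TR-FRET Assay Max Response: 665/615 nm ratio relative to signal without ursolic acid or compound set at 100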
T2 construct: made in house; host or cells: SF9 cells (baculovirus)
T2 sequence (P51449 269-508 limits assumed): T1 sequence (P51449 269-508 limits assumed)
How it was run: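 SF9 lysate containing His-RORγ-LBD, ~3 nM final; coactivator peptide biotin-SRC1 LXXLL, 200 nM final; ursolic acid 2 μM final; DMSO 1% final; Tris pH 7.0 buffer with KCl, EDTA, DTT, BSA. TR-FRET format.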

Row | Structure (SMILES) | EC50 (Gal4-RORγ-LBD) [nM] | Gal4-RORγ Assay Max Response (Gal4-RORγ-LBD) | EC50 (RORγ-LBD) [nM] | TR-FRET Assay Max Response (RORγ-LBD)
1 | O=C(CC[C@H]1CN(S(=O)(=O)c2cccc(C(F)(F)F)c2)c2cc(-c3cccc(Cl)c3)ccc2O1)N1CCOCC1 [Compound 23B, (S)-3-(6-(3-chlorophenyl)-4-((3-(trifluoromethyl)phenyl)sulfonyl)-3,4-dihydro-2H-benzo[b][1,4]-oxazin-2-yl)-1-morpholino-propan-1-one] | < 500 | ** (The symbol “**” indicates a value in the range of greater than 90 to 150) | < 500 | **** (The symbol “****” indicates a value greater than 200)
2 | O=C(O)C1CCN(C(=O)CC[C@H]2CN(S(=O)(=O)c3cccc(C(F)(F)F)c3)c3cc(-c4cccc(Cl)c4)ccc3O2)CC1 [Compound 23C, (S)-1-(3-(6-(3-chlorophenyl)-4-((3-(trifluoromethyl)phenyl)-sulfonyl)-3,4-dihydro-2H-benzo[b][1,4]oxazin-2-yl)propanoyl)piperidine-4-carboxylic acid] | < 500 | ** (The symbol “**” indicates a value in the range of greater than 90 to 150) | < 500 | *** (The symbol “***” indicates a value in the range of greater than 150 to 200)
3 | O=C(O)CCNC(=O)CC[C@H]1CN(S(=O)(=O)c2cccc(C(F)(F)F)c2)c2cc(-c3cccc(Cl)c3)ccc2O1 [Compound 23D, (S)-3-(3-(6-(3-chlorophenyl)-4-((3-(trifluoromethyl)phenyl)-sulfonyl)-3,4-dihydro-2H-benzo[b][1,4]oxazin-2-yl)propanamido)propanoic acid] | < 500 | ** (The symbol “**” indicates a value in the range of greater than 90 to 150) | < 500 | *** (The symbol “***” indicates a value in the range of greater than 150 to 200)
4 | O=C(O)C1CCN(C(=O)CC[C@H]2CN(S(=O)(=O)c3cccc(C(F)(F)F)c3)c3cc(-c4cccc(C(F)(F)F)n4)cc(F)c3O2)CC1 [Compound 23E, (S)-1-(3-(8-fluoro-4-((3-(trifluoromethyl)phenyl)sulfonyl)-6-(6-(trifluoromethyl)pyridin-2-yl)-3,4-dihydro-2H-benzo[b][1,4]oxazin-2-yl)propanoyl)piperidine-4-carboxylic acid] | < 500 | ** (The symbol “**” indicates a value in the range of greater than 90 to 150) | < 500 | **** (The symbol “****” indicates a value greater than 200)
5 | O=C(O)C1CCN(C(=O)CC[C@H]2CN(S(=O)(=O)c3cccc(C(F)(F)F)c3)c3cc(-c4cccc(C(F)(F)F)n4)ccc3O2)CC1 [Compound 23F, (S)-1-(3-(4-((3-(trifluoromethyl)-phenyl)sulfonyl)-6-(6-(trifluoro-methyl)pyridin-2-yl)-3,4-dihydro-2H-benzo[b][1,4]oxazin-2-yl)propanoyl)piperidine-4-carboxylic acid] | < 500 | ** (The symbol “**” indicates a value in the range of greater than 90 to 150) | < 500 | **** (The symbol “****” indicates a value greater than 200)
6 | O=C(CC[C@H]1CN(S(=O)(=O)c2cccc(C(F)(F)F)c2)c2cc(-c3cccc(C(F)(F)F)n3)ccc2O1)N1CCS(=O)(=O)CC1 [Compound 23G, (S)-1-(1,1-dioxidothio-morpholino)-3-(4-((3-(trifluoro-methyl)phenyl)sulfonyl)-6-(6-(trifluoromethyl)pyridin-2-yl)-3,4-dihydro-2H-benzo[b][1,4]-oxazin-2-yl)propan-1-one] | < 500 | ** (The symbol “**” indicates a value in the range of greater than 90 to 150) | < 500 | **** (The symbol “****” indicates a value greater than 200)
